Measurements as given in US5141627A, “Chelators whose affinity for calcium ion is increased by illumination” (The Regents of the University of California, priority 1989, dated 1992).

Assays:
[1] = Ca2+ affinity by UV spectra during titration of EGTA or HEEDTA buffers; format: binding
Procedure: The titration was done at 22° C. with 10 mL of 100 mM KCl, 10 mM K-MOPS, 10 mM K2 H.HEEDTA, and 14 […] diazo-2 as starting materials, adjusting the pH to 7.24, recording the spectrum, and then discarding 1.0 mL of this solution and replacing with 1.0 mL of 100 mM KCl, 10 mM K.MOPS, 10 mM KCa.HEEDTA, 14 μM diazo-2, readjusting the pH to 7.24, and recording the spectra, which was then in 9 mM K2H.HEEDTA. Subsequent iterations to reach n mM KCa.HEEDTA, (10-n) mM HEEDTA, n=2-10, were done by discarding 10.0/(11-n) mL and replacing with equal volumes of the 10mM KCa.HEEDTA, 14 μM diazo-2 stock. After n=10 had been reached to give free Ca^2+ between 10^-5 and 10^-4 M, addition of 1 mM CaCl2 had no further effect on the spectrum. For clarity only six spectra are including in the figure, n=0, 2, 4, 6, 8, and 10. Each spectrum is labeled with the calculated free [Ca^2+ ] imposed by the HEEDTA buffer, assuming a log effective stability constant of 5.55 at pH 7.24.
The phenylacetate was produced by irradiating a 30 μM solution of diazo-2 in 100 mM KCl, 10 mM Tris.HCl, 10 mM K2 H.HEEDTA, pH 8.40, with Spectroline lamp at 365 nm to completion. The titration was then performed as in A but the pH was maintained at 8.40, at which the calculated log effective stability is constant for HEEDTA was 6.60.
(§1) Ca^2+ -binding constants for chelators before and after photolysis were determined by monitoring UV spectra during titration of EGTA or HEEDTA buffers to varying free Ca^2+ levels.
Either the ratio of, for example, [Ca.EGTA] to free [EGTA] was adjusted at a constant pH, or the pH was varied while [Ca.EGTA]=[EGTA]. These two approaches gave equivalent answers for pH>7 whenever directly tested, because of the pH insensitivity of BAPTA-like ligands (see FIG. 1 legend for more details). The apparent dissociation constants of Ca.EGTA and Ca.HEEDTA were calculated as described by R. Y. Tsien (1980); see also R. Y. Tsien, et al. (1986), S. R. Adams, et al. (1980), Grynkiewicz, et al., (1985), and Jackson, et al. (1987).

[2] = Mg2+ affinity in Mg/EGTA buffers; format: binding; conditions: 0.1-0.15M ionic strength, pH 7.0-7.4, 20-23° C.
Procedure: as §1
Free [Mg^2+ ] was likewise controlled by Mg/EGTA buffers, assuming an apparent dissociation constant for the Mg.EGTA complex (including its monoprotonated form) of 6 mM at pH 7.60 in 0.1M ionic strength; see R. Y. Tsien, et al. (1986) and A. E. Martell, et al. (1974).

[3] = Quantum efficiency and completion of photolysis; format: physicochemical; conditions: for Φ quantum efficiency of photolysis, free: zero [Ca2+]
Procedure: Spectra were obtained after 0, 2, 5, 9, 16, 28, 46, 80, 150, 285, 505 and 903 sec of 365-nm illumination at 7.82×10^- 9 einsteins cm^-2 s^-1 from Spectroline lamp. For clarity only the 0-, 9-, 28-, 46-, 80-, 150-, and 505-s spectra are reproduced herein. The 505- and 903-s spectra were identical, confirming completion of photolysis after those times. Solutions were at 22±2° C.
The method was as described in FIG. 1B except that the EGTA was replaced by 2 mM CaCl2, and spectra were measured after 0-, 50-, 100-, 203-, 412-, 840-, 1730-, 4080-, and 8000-s illumination. The last two spectra were identical, confirming completion. For clarity the 50- and 8000-s spectra are omitted.
The photolysis quantum efficiencies of diazo chelators were determined by alternately irradiating a buffered solution of the substrate with a known intensity of longwave UV light, and measuring the absorbance spectrum, in apparatus described by S. R. Adams, et al. (1988), supra.

[4] = after photolysis, read-out: Kd (Mg2+), after photolysis

| Kd ([1]; after photolysis, 0.1-0.15M ionic strength, 20-23° C., read-out: Kd (Ca2+), after photolysis) [µM] | Kd ([1]; before photolysis, 0.1-0.15M ionic strength, pH 7.0-7.4, 20-23° C., read-out: Kd (Ca2+), before photolysis) [µM] | Kd [2, 4] [mM] | Kd ([2]; before photolysis, read-out: Kd (Mg2+), before photolysis) [mM] | quantum yield of photolysis ([3]; 365 nm) | Φ quantum efficiency of photolysis, +Ca2+ ([3]; saturating [Ca2+]) | Φ quantum efficiency of photolysis, free [3] | Kd ([1]; negligible affinity, pre- and post-photolysis, read-out: Kd (Ca2+)) [µM] | SMILES | illumination time to completion of photolysis, free ([3]; 365 nm, 7.82×10^-9 einsteins cm^-2 s^-1, absence of Ca2+, 8 μM) [s] |
| --- | --- | --- | --- | --- | --- | --- | --- | --- | --- |
| 0.073 | 2.2 | 3.4 | 5.5 | 0.030 | 0.030 | 0.057 |  | Cc1ccc(N(CC(=O)O)CC(=O)O)c(OCCOc2cc(C(=O)C=[N+]=[N-])ccc2N(CC(=O)O)CC(=O)O)c1 [diazo-2, 1-(2-bis(carboxymethyl)amino-5-methyl) phenoxy-2-(2-bis(carboxymethyl)amino-5-(diazoacetyl)phenoxy) ethane] | ≤ 505 |
|  |  | ~20 |  |  |  | 0.048 | > 1000 | COc1cc(C(=O)C=[N+]=[N-])ccc1N(CC(=O)O)CC(=O)O [diazo-3, 2-methoxy-4-(diazoacetyl)aniline-N, N-diacetic acid] |  |
